Assay results: article PMC7559897, “Designed Antimicrobial Peptides Against Trauma-Related Cutaneous Invasive Fungal Wound Infections” (Journal of Fungi, 2020)
Bridge positions count the residues as written; N and C are the ends. Peptide text beside a SMILES is read from it.

What was measured:
K. pneumonia ATCC 10031 = assay type: cell-based, Klebsiella pneumoniae; settings: cation adjusted Mueller-Hinton broth, ~10^6 CFU/mL, 24 h, 37 °C, OD600 <0.1 in at least 3 of 4 wells, 2-128 μg/mL; shaded values previously reported ref 18
Description: (§1) Assays were performed by Trideum Biosciences (Frederick, MD, USA). Isolates were thawed from −80 °C storage and sub-cultured on trypticase soy agar plates at 37 °C prior to experimentation. A single colony was aseptically picked from the agar plate and released in 30 mL trypticase soy broth and incubated overnight at 37 °C incubator. Following which the bacterial culture was diluted to approximately 10^6 colony forming units (CFU)/mL using 2X cation adjusted Mueller–Hinton broth and added to the dAMP solutions (0, 2, 4, 8, 16, 32, 64, and 128 μg/mL) which had been formulated in water at 256 μg/mL and then serially diluted in media on 96-well pates. For fungal evaluation, potato dextrose broth and potato dextrose agar plates were used. The treated cultures were then incubated for 24 h at 37 °C and pathogen growth was measured by absorbance at 600 nm. Four replicas were included for each dAMP concentration. Each MIC was assigned to the lowest test agent concentration resulting in at least three out of four wells showing no growth based on an optical density (OD) reading of <0.1.

K. pneumonia 6069 = assay type: cell-based, Klebsiella pneumoniae; settings: cation adjusted Mueller-Hinton broth, ~10^6 CFU/mL, 24 h, 37 °C, OD600 <0.1 in at least 3 of 4 wells, 2-128 μg/mL; shaded values previously reported ref 18
Description: as §1

[1] = tested on: P. aeruginosa 19660 (Xen5 luciferase); test: Bioluminescent time-kill assay; assay type: cell-based, Pseudomonas aeruginosa; settings: 8 μg/mL; RP553 at 60 min; bioluminescence
Source text: (§2) Fungal and bacterial strains were obtained from American Type Culture Collection (ATCC, Manassas, VA, USA) or the clinical isolate collection at Trideum Biosciences (Frederick, MD, USA) and are presented in Table 1 and Table 2, respectively. Bioluminescence strains of P. aeruginosa 19660, transfected with the Xen5 luciferase gene, and S. aureus ATCC R 49525TM (Wright), transfected with the Xen36 luciferase gene, were obtained from Perkin Elmer (Waltham, MA, USA).
(§3) Real-time killing of bacterial cells, P. aeruginosa or S. aureus, and mammalian cytotoxicity to assess dAMP off-target toxicity was evaluated using bioluminescent cells. The L929 fibroblast cells (ATCC, Manassas, VA, USA) were made bioluminescent by transfection with a luciferase gene. Cells (1 × 10^4 cells, 100 μL) were plated in 96-well black-walled plates and the candidate dAMPs were 2-fold serially diluted from specified concentrations in growth medium supplemented with 150 μg/mL D-luciferin. Each concentration was performed in triplicate, with the final volume being 200 μL. Imaging was performed at select times after the addition of the dAMP, and compared to concurrently run vehicle-control, using an IVIS Lumina imaging system (Caliper Life Sciences, Inc., Hopkinton, MA, USA). For imaging, the 96-well plate was positioned on the stage (12.5-cm field of view), with an open emission filter, binning of 4, and f-stop 1 and a 1-min exposure time. Monitoring bioluminescence allows assessment of the kinetics of cellular viability as there is a tight correlation between the bioluminescent signal and cell viability. Data analysis was performed using the Living Image software program (version 4.3, Caliper Life Sciences, Inc., Hopkinton, MA, USA).
(§4) Figure 3 RP553, RP556, RP557 rapidly destroy P. aeruginosa and S. aureus. The bioluminescence of viable P. aeruginosa 19,660 and S. aureus 49,525 cells was quantitated in real time with an IVIS Lumina bioimaging system. Data represent the mean ± SE of triplicate replicates from two independent experiments. For some points, the error bars are shorter than the height of the symbols.

A. baumannii ATCC 17978 = assay type: cell-based, Acinetobacter baumannii; settings: cation adjusted Mueller-Hinton broth, ~10^6 CFU/mL, 24 h, 37 °C, OD600 <0.1 in at least 3 of 4 wells, 2-128 μg/mL; shaded values previously reported ref 18
Description: as §1

A. baumannii 6838 = assay type: cell-based, Acinetobacter baumannii; settings: cation adjusted Mueller-Hinton broth, ~10^6 CFU/mL, 24 h, 37 °C, OD600 <0.1 in at least 3 of 4 wells, 2-128 μg/mL; shaded values previously reported ref 18
Description: as §1

A. baumannii 6043 = assay type: cell-based, Acinetobacter baumannii; settings: cation adjusted Mueller-Hinton broth, ~10^6 CFU/mL, 24 h, 37 °C, OD600 <0.1 in at least 3 of 4 wells, 2-128 μg/mL; shaded values previously reported ref 18
Description: as §1

P. aeruginosa ATCC 27853 = assay type: cell-based, Pseudomonas aeruginosa; settings: cation adjusted Mueller-Hinton broth, ~10^6 CFU/mL, 24 h, 37 °C, OD600 <0.1 in at least 3 of 4 wells, 2-128 μg/mL; shaded values previously reported ref 18
Description: as §1

P. aeruginosa ATCC 19660 = assay type: cell-based, Pseudomonas aeruginosa; settings: cation adjusted Mueller-Hinton broth, ~10^6 CFU/mL, 24 h, 37 °C, OD600 <0.1 in at least 3 of 4 wells, 2-128 μg/mL; shaded values previously reported ref 18
Description: as §1

P. aeruginosa 6186 = assay type: cell-based, Pseudomonas aeruginosa; settings: cation adjusted Mueller-Hinton broth, ~10^6 CFU/mL, 24 h, 37 °C, OD600 <0.1 in at least 3 of 4 wells, 2-128 μg/mL; shaded values previously reported ref 18
Description: as §1

[2] = tested on: S. aureus 49525 (Xen36 luciferase); assay type: cell-based, Staphylococcus aureus; settings: 8 μg/mL, 60 min incubation, bioluminescence, triplicates from two independent experiments
Source text: as §2, §3, §4

S. aureus 6061 = assay type: cell-based, Staphylococcus aureus; settings: cation adjusted Mueller-Hinton broth, ~10^6 CFU/mL, 24 h, 37 °C, OD600 <0.1 in at least 3 of 4 wells, 2-128 μg/mL; shaded values previously reported ref 18
Description: as §1

MRSA 6381 = assay type: cell-based, Staphylococcus aureus; settings: cation adjusted Mueller-Hinton broth, ~10^6 CFU/mL, 24 h, 37 °C, OD600 <0.1 in at least 3 of 4 wells, 2-128 μg/mL; shaded values previously reported ref 18
Description: as §1

MRSA ATCC 33592 = assay type: cell-based, Staphylococcus aureus; settings: cation adjusted Mueller-Hinton broth, ~10^6 CFU/mL, 24 h, 37 °C, OD600 <0.1 in at least 3 of 4 wells, 2-128 μg/mL; shaded values previously reported ref 18
Description: as §1

MRSA 6313 = assay type: cell-based, Staphylococcus aureus; settings: cation adjusted Mueller-Hinton broth, ~10^6 CFU/mL, 24 h, 37 °C, OD600 <0.1 in at least 3 of 4 wells, 2-128 μg/mL; shaded values previously reported ref 18
Description: as §1

S. aureus B-767 = assay type: cell-based, Staphylococcus aureus; settings: cation adjusted Mueller-Hinton broth, ~10^6 CFU/mL, 24 h, 37 °C, OD600 <0.1 in at least 3 of 4 wells, 2-128 μg/mL; shaded values previously reported ref 18
Description: as §1

L929 fibroblast cells = test: Bioluminescent mammalian cytotoxicity assay; assay type: cell-based, murine; settings: L929 fibroblasts, up to 64 μg/mL, 8 h of exposure, bioluminescence
Description: as §3, with “Data analysis was performed using the Living Image software program (version 4.3, Caliper Life Sciences, Inc., Hopkinton, MA, USA).” left out
Figure 2 RP504, RP556 and RP557 induce limited mammalian cell toxicity. […] Cells were plated at 1×10^4 cells/well, allowed to adhere overnight and the specific dAMP added, and cytotoxicity evaluated through 8 h. […]

Candida krusei Y-27803 = assay type: cell-based; settings: potato dextrose broth, 24 h, 37 °C, OD600 <0.1 in at least 3 of 4 wells, dose range 2 to 128 µg/mL; shaded values previously reported ref 17
Description: as §1

E. cloacae 6053 = assay type: cell-based; settings: cation adjusted Mueller-Hinton broth, ~10^6 CFU/mL, 24 h, 37 °C, OD600 <0.1 in at least 3 of 4 wells, 2-128 μg/mL; shaded values previously reported ref 18
Description: as §1

[3] = tested on: Fusarium solani NRRL 28548; assay type: cell-based; settings: potato dextrose broth, 24 h, 37 °C, OD600 <0.1 in at least 3 of 4 wells, dose range 2 to 128 µg/mL; shaded values previously reported ref 17
Description: as §1

S. epidermis ATCC 51625 = assay type: cell-based; settings: cation adjusted Mueller-Hinton broth, ~10^6 CFU/mL, 24 h, 37 °C, OD600 <0.1 in at least 3 of 4 wells, 2-128 μg/mL; shaded values previously reported ref 18
Description: as §1

[4] = tested on: Aspergillus flavus MYA-3651; assay type: cell-based; settings: potato dextrose broth, 24 h, 37 °C, OD600 <0.1 in at least 3 of 4 wells, dose range 2 to 128 µg/mL; shaded values previously reported ref 17
Description: as §1

[5] = tested on: Aspergillus fumigatus 9648; assay type: cell-based; settings: potato dextrose broth, 24 h, 37 °C, OD600 <0.1 in at least 3 of 4 wells, dose range 2 to 128 µg/mL; shaded values previously reported ref 17
Description: as §1

Candida albicans Y-326 = assay type: cell-based; settings: potato dextrose broth, 24 h, 37 °C, OD600 <0.1 in at least 3 of 4 wells, dose range 2 to 128 µg/mL; shaded values previously reported ref 17
Description: as §1

Candida albicans Y-6359 = assay type: cell-based; settings: potato dextrose broth, 24 h, 37 °C, OD600 <0.1 in at least 3 of 4 wells, dose range 2 to 128 µg/mL; shaded values previously reported ref 17
Description: as §1

[6] = tested on: Mucor circinelloides NRRL 3631; assay type: cell-based; settings: potato dextrose broth, 24 h, 37 °C, OD600 <0.1 in at least 3 of 4 wells, dose range 2 to 128 µg/mL; shaded values previously reported ref 17
Description: as §1

[7] = tested on: Absidia corymbifera NRRL 6251; assay type: cell-based; settings: potato dextrose broth, 24 h, 37 °C, OD600 <0.1 in at least 3 of 4 wells, dose range 2 to 128 µg/mL; shaded values previously reported ref 17
Description: as §1

[8] = tested on: Candida parapsilosis Y-1763; assay type: cell-based; settings: potato dextrose broth, 24 h, 37 °C, OD600 <0.1 in at least 3 of 4 wells, dose range 2 to 128 µg/mL; shaded values previously reported ref 17
Description: as §1

E. cloacae 6054 = assay type: cell-based; settings: cation adjusted Mueller-Hinton broth, ~10^6 CFU/mL, 24 h, 37 °C, OD600 <0.1 in at least 3 of 4 wells, 2-128 μg/mL; shaded values previously reported ref 18
Description: as §1

[9] = tested on: Aspergillus fumigatus 9651; assay type: cell-based; settings: potato dextrose broth, 24 h, 37 °C, OD600 <0.1 in at least 3 of 4 wells, dose range 2 to 128 µg/mL; shaded values previously reported ref 17
Description: as §1

Candida krusei Y-27825 = assay type: cell-based; settings: potato dextrose broth, 24 h, 37 °C, OD600 <0.1 in at least 3 of 4 wells, dose range 2 to 128 µg/mL; shaded values previously reported ref 17
Description: as §1

[10] = tested on: Aspergillus flavus MYA-1004; assay type: cell-based; settings: potato dextrose broth, 24 h, 37 °C, OD600 <0.1 in at least 3 of 4 wells, dose range 2 to 128 µg/mL; shaded values previously reported ref 17
Description: as §1

[11] = tested on: Candida parapsilosis Y-1761; assay type: cell-based; settings: potato dextrose broth, 24 h, 37 °C, OD600 <0.1 in at least 3 of 4 wells, dose range 2 to 128 µg/mL; shaded values previously reported ref 17
Description: as §1

CC[C@H](C)[C@@H]1NC(=O)CNC(=O)[C@H](CCCCN)NC(=O)[C@H](Cc2ccc(O)cc2)NC(=O)[C@@H]2CSSC[C@H](NC1=O)C(=O)N[C@@H](Cc1ccc(O)cc1)C(=O)N[C@@H](CCCCN)C(=O)N[C@@H](CCCCN)C(=O)N[C@H](C(=O)N[C@@H](CCCCN)C(N)=O)CSSC[C@H](NC(=O)[C@H](Cc1c[nH]c3ccccc13)NC(=O)[C@@H](N)CCCNC(=N)N)C(=O)N[C@@H](Cc1ccccc1)C(=O)N[C@@H](CCCCN)C(=O)N[C@@H](C(C)C)C(=O)N2 [RP556] (H-RWCFKVCYKGICYKKCK-NH2; disulfide 3-16, 7-12)
immediate eradication: P. aeruginosa killing (in words) [1]
4 µg/mL: MIC against P. aeruginosa 6186 (P. aeruginosa 6186) | MIC against MRSA 6381 (MRSA 6381) | MIC against MRSA ATCC 33592 (MRSA ATCC 33592) | MIC against S. epidermis ATCC 51625 (S. epidermis ATCC 51625)
16 µg/mL: MIC against S. aureus 6061 (S. aureus 6061) | MIC against Candida krusei Y-27803 (Candida krusei Y-27803) | MIC against Candida albicans Y-326 (Candida albicans Y-326)
2 µg/mL: MIC against Fusarium solani NRRL 28548 [3] | MIC against Absidia corymbifera NRRL 6251 [7] | MIC against Candida parapsilosis Y-1763 [8]
32 µg/mL: MIC against Candida krusei Y-27825 (Candida krusei Y-27825) | MIC against Candida parapsilosis Y-1761 [11]
8 µg/mL: MIC against K. pneumonia ATCC 10031 (K. pneumonia ATCC 10031) | MIC against K. pneumonia 6069 (K. pneumonia 6069) | MIC against A. baumannii ATCC 17978 (A. baumannii ATCC 17978) | MIC against A. baumannii 6838 (A. baumannii 6838) | MIC against A. baumannii 6043 (A. baumannii 6043) | MIC against P. aeruginosa ATCC 27853 (P. aeruginosa ATCC 27853) | MIC against P. aeruginosa ATCC 19660 (P. aeruginosa ATCC 19660) | MIC against MRSA 6313 (MRSA 6313) | MIC against S. aureus B-767 (S. aureus B-767) | MIC against E. cloacae 6053 (E. cloacae 6053) | MIC against Candida albicans Y-6359 (Candida albicans Y-6359) | MIC against E. cloacae 6054 (E. cloacae 6054)
45%: S. aureus killing [2]
64 µg/mL: MIC against Aspergillus flavus MYA-3651 [4] | MIC against Aspergillus fumigatus 9648 [5] | MIC against Mucor circinelloides NRRL 3631 [6] | MIC against Aspergillus fumigatus 9651 [9] | MIC against Aspergillus flavus MYA-1004 [10]
Limited toxicity: mammalian cell toxicity (in words) (L929 fibroblast cells)
